Experimental data taken from patent US9193954B2, “Methods and compositions for mesenchymal stem cell proliferation” (priority 2011, dated 2015).

Experiments:
Format in all cases: cell-based, human
[1] = tested on: markers of undifferentiated stem cells, Sox2, Nanog, and Oct4; assay: RT-PCR of Sox2, Nanog, Oct4 in two-dimensionally cultured BIO-treated hMSCs, normalized to β-actin
Method: (§1) RT-PCR was used to assess gene expression of hMSCs over time. At days: 0 (before BIO treatment), 1, 3, 6, 19, 29, 34, 37, and 41, samples were lysed and total RNA was isolated (ENZA Total RNA Kit, Omega). Reverse transcription was performed using the iScript cDNA Synthesis Kit (Bio-Rad). The reverse transcription reaction was incubated at 25° C. for 5 min, 42° C. for 30 min, and terminated at 85° C. for 5 min. PCR was performed using a CFX96 Real-Time PCR System (Bio-Rad), monitoring sybrgreen products (SsoFastEvaGreen Master Mix, Bio-Rad). Primers for β-actin, sex determining region Y-box 2 (Sox2), Nanog homobox (Nanog), and octamer-binding transcription factor 4 (Oct4), core-binding factor subunit alpha-1 (Cbfa1, also known as Runx2), sex determining region Y-box 9 (Sox9), and peroxisome proliferator-activated receptor gamma (PPARγ) were used (Table 2). The PCR parameters used were as follows: hold at 95° C. for 5 min, followed by 40 cycles of: 95° C. for 15 sec denaturation, 60° C. (β-actin, Sox2, Sox9), or 57° C. (Nanog, Oct4, Cbfa1), or 55° C. (PPARγ) for 60 sec annealing, and 72° C. for 20 sec extension. Threshold cycle (CT) analysis was used to quantify PCR products normalized to the cellular housekeeping gene β-actin. Relative gene quantification was performed using the Pfaffl Method, taking into account the variation between primer efficiencies.
To more closely examine BIO's effects on hMSCs gene expression profiles for the markers of undifferentiated stem cells sex determining region Y-box 2 (Sox2), Nanog homobox (Nanog), and octamer-binding transcription factor 4 (Oct4) were monitored and normalized to the housekeeping gene β-actin. […] RNA was collected just before, and 1, 3, 6, 19, 27, 34, 37, and 41 days after the BIO treatment Results were quantified over time and again, normalized to both the housekeeping gene β-actin and untreated controls (0 μM BIO), and the results are shown in FIG. 5.

[2] = tested on: hMSCs; assay: Two-dimensional hMSC proliferation by manual cell counts (trypan blue, hemocytometer); conditions: for increase in cell population compared to untreated controls: day 41, 24 hr treatment
Method: (§2) FIG. 4 Schematic representation of 41 day hMSC monolayer culture after 24 hr exposure to BIO-containing media (A). Cells were trypsinized and manually counted on days 0, 1, 3, 6, 19, 27, 34, 37, and 41 and shown to undergo a dose-dependent, BIO-mediated increase in proliferation (B).
hMSCs or C3H10T1/2s were seeded at a density of 5,000 cell/cm^2 in 24-well tissue culture plates (Greiner Bio-One, Monroe, N.C.) and allowed to become adherent over a period of 24 hrs prior to treatment. BIO was solubilized in dimethyl sulfoxide (DMSO) to prepare 200 and 500 μM stock solutions. 10 μL of BIO in DMSO was added to 1 mL of culture media so that the final concentrations of 0, 2, and 5 μM were achieved. The cells were cultured with BIO-containing media for 24 hrs after which media was replaced by media without BIO, as illustrated in FIGS. 4a and 7a (two-dimensional treatment and three-dimensional treatment respectively).
During culture, hMSC viability was periodically assessed using an alamarBlue metabolic assay (AbD Serotec, UK). Culture media was replaced with a 10% alamarBlue-media solution and allowed to incubate at 37° C. for 2 hr. After incubation, alamarBlue solution was transferred to black 96-well plates and media was refreshed. Fluorescence intensity was measured using a Tecan Infinite 200 PRO plate-reader (excitation/emission: 570/600 nm). To assess hMSC proliferation, cells were trypsinized and counted using trypan blue exclusion and a hemocytometer. Average cell counts were normalized to data collected on day 0 to illustrate the effect of BIO on hMSC proliferation over time.

[3] = tested on: hMSCs; assay: LIVE/DEAD confocal imaging of two-dimensional BIO-treated hMSC cultures; conditions: no detectable dead cells
Method: as §2
hMSC cell layer thickness was measured using the z-directional controls of a FV1000 Olympus Laser Scanning Confocal Microscope. On days 1, 14, and 40 cells, seeded on optically clear glass bottom 24-well culture plates (MatTek, Ashland, Mass.) were stained using a fluorescent LIVE/DEAD Viability/Cytotoxicity kit (Invitrogen). The focal plane of the microscope was adjusted to the cell-plate interface and set to zero. Using the z-directional controls the focal plane was raised until the live fluorescently stained cells were no longer visible at which point the cell layer thickness was recorded.

[4] = tested on: hMSCs; assay: Media induced differentiation of BIO-treated hMSCs (histology and Cbfa1, Sox9, PPARγ expression)
Method: Dev Cell. […] After 24 hrs cell media was replaced and cells were allowed to proliferate over three weeks. After three weeks BIO-treated hMSCs were cultured for three weeks in standard differentiation-inducing media (FIG. 6a). For osteogenic differentiation hMSCs were grown in normal growth media with osteogenic supplements (100 nM dexamethasone, 10 mM β-glycerophosphate, 50 μM ascorbic acid-2-phosphate). […] Differentiated two-dimensional cell cultures were fixed in 24-well tissue culture plates for 48 hrs in 4% paraformaldehyde and the monolayers were stained for mineralization (von Kossa, osteogenic), or the presence of lipid droplets (oil red o, adipogenic). Undifferentiated cultures were also stained as negative controls. Images were taken on a Motic AE20 inverted light microscope using a Canon EOS Rebel T2i with an eyepiece modification.
For chondrogenic differentiation, hMSCs were seeded at a density of 5,000 cell/cm^2 in T-75 tissue culture flasks, allowed to become adherent, and treated with BIO containing growth media for 24 hrs. After 24 hrs, cell media was replaced and cells were allowed to proliferate over three weeks (FIG. 6a). […] Pellet cultures were fixed for 48 hrs in 4% paraformaldehyde, cryosectioned, and stained for glycosaminoglycan production (toluidine blue, chondrogenic). Stained sections were imaged as described above.
as §1

[5] = 5 μM BIO, adipogenic-differentiated hMSCs
[6] = 5 μM BIO, osteogenic differentiated hMSCs

**Q.** With `O=C1Nc2cc(Br)ccc2/C1=C1/Nc2ccccc2/C1=N\O` [BIO, 6-bromoindirubin-3′-oxime] as the compound, how does the “Nanog gene expression compared to untreated control” value ([1]; 2 μM BIO, day 1, 2D) read?
**A.** 5.4 fold

**Q.** And the “Oct4 gene expression compared to untreated control” value ([1]; 2 μM BIO, day 1, 2D)?
**A.** 5.1 fold

**Q.** And the “Sox2 gene expression compared to untreated control” value ([1]; 2 μM BIO, day 1, 2D)?
**A.** 7.1 fold

**Q.** What about the “Nanog gene expression compared to untreated control” value ([1]; 2 μM BIO, day 3, 2D) of the same compound?
**A.** 1.0 fold

**Q.** And the “Oct4 gene expression compared to untreated control” value ([1]; 2 μM BIO, day 3, 2D)?
**A.** 3.4 fold

**Q.** What about the “Sox2 gene expression compared to untreated control” value ([1]; 2 μM BIO, day 3, 2D) of the same compound?
**A.** 4.4 fold

**Q.** What about the “Nanog gene expression compared to untreated control” value ([1]; 5 μM BIO, day 1, 2D) of the same compound?
**A.** 15.3 fold

**Q.** And the “Oct4 gene expression compared to untreated control” value ([1]; 5 μM BIO, day 1, 2D)?
**A.** 16.9 fold

**Q.** And the “Sox2 gene expression compared to untreated control” value ([1]; 5 μM BIO, day 1, 2D)?
**A.** 96.4 fold

**Q.** And the “Nanog gene expression compared to untreated control” value ([1]; 5 μM BIO, day 3, 2D)?
**A.** 4.8 fold

**Q.** What about the “Oct4 gene expression compared to untreated control” value ([1]; 5 μM BIO, day 3, 2D) of the same compound?
**A.** 9.8 fold

**Q.** And the “Sox2 gene expression compared to untreated control” value ([1]; 5 μM BIO, day 3, 2D)?
**A.** 17.7 fold

**Q.** And the “increase of Nanog expression relative to untreated controls” value ([1]; day 1, 2 uM BIO)?
**A.** 797%

**Q.** What about the “increase of Oct4 expression relative to untreated controls” value ([1]; day 1, 2 uM BIO) of the same compound?
**A.** 545%

**Q.** And the “increase of Sox2 expression relative to untreated controls” value ([1]; day 1, 2 uM BIO)?
**A.** 677%

**Q.** And the “increase of Nanog expression relative to untreated controls” value ([1]; day 1, 5 uM BIO)?
**A.** 2247%

**Q.** What about the “increase of Oct4 expression relative to untreated controls” value ([1]; day 1, 5 uM BIO) of the same compound?
**A.** 1800%

**Q.** What about the “increase of Sox2 expression relative to untreated controls” value ([1]; day 1, 5 uM BIO) of the same compound?
**A.** 9180%

**Q.** What about the “increase of Nanog expression relative to untreated controls” value ([1]; day 3, 2 uM BIO) of the same compound?
**A.** 71%

**Q.** And the “increase of Oct4 expression relative to untreated controls” value ([1]; day 3, 2 uM BIO)?
**A.** 263%

**Q.** What about the “increase of Sox2 expression relative to untreated controls” value ([1]; day 3, 2 uM BIO) of the same compound?
**A.** 312%

**Q.** What about the “increase of Nanog expression relative to untreated controls” value ([1]; day 3, 5 uM BIO) of the same compound?
**A.** 324%

**Q.** And the “increase of Oct4 expression relative to untreated controls” value ([1]; day 3, 5 uM BIO)?
**A.** 755%

**Q.** What about the “increase of Sox2 expression relative to untreated controls” value ([1]; day 3, 5 uM BIO) of the same compound?
**A.** 1238%

**Q.** What about the “2D proliferation relative to untreated control” value ([2]; 2 uM BIO) of the same compound?
**A.** 155%

**Q.** And the “increase in cell population compared to untreated controls” value ([2]; 2 μM BIO)?
**A.** 4.5 fold

**Q.** And the “2D proliferation relative to untreated control” value ([2]; 5 uM BIO)?
**A.** 172%

**Q.** What about the “increase in cell population compared to untreated controls” value ([2]; 5 μM BIO) of the same compound?
**A.** 5.5 fold

**Q.** What about the hMSC population increase ([2]; BIO-treated hMSCs, concentration and day not stated) of the same compound?
**A.** ~4 fold

**Q.** What about the “live cells (LIVE/DEAD imaging)” value [3] of the same compound?
**A.** ~100%

**Q.** What about the “histological analysis of differentiation (von Kossa, toluidine blue, oil red o), BIO-treated versus untreated” value ([4]; 5 μM BIO 24 hrs, 21 days proliferation, 3 weeks differentiation media) of the same compound?
**A.** uniform mineralization

**Q.** What about the “PPARγ expression over undifferentiated controls” value [4, 5] of the same compound?
**A.** 31.2 fold

**Q.** What about the “increase in PPARγ expression compared to differentiated non-BIO-treated (0 μM) controls” value [4, 5] of the same compound?
**A.** 5.0 fold

**Q.** And the “Sox9 expression compared with undifferentiated controls” value ([4]; 5 μM BIO, chondrogenic-differentiated hMSCs, not statistically significant)?
**A.** 0.6 fold

**Q.** What about the “Cbfa1 expression over undifferentiated controls” value [4, 6] of the same compound?
**A.** 3.9 fold

**Q.** What about the “increase in Cbfa1 expression compared to differentiated non-BIO-treated (0 μM) controls” value [4, 6] of the same compound?
**A.** 2.1 fold
